Test results: patent publication US8455523B2, “Compositions and methods for treating hyperlipidemias” (The Research Foundation of State University of New York, priority 2010, dated 2013)

Tests used:
[1] = tested on: C57Bl/6J mice fed western diet; assay: MTP inhibitor CP-346086 with or without lovastatin or WY14643 in western diet fed mice: plasma/hepatic lipids, AST/ALT; assay type: in vivo; settings: for hepatic cholesterol (total, free and esterified): co-drug given with MTPi, compared to MTPi group
Protocol: FIGS. 4a and 4b. Effect of MTP inhibitor (CP-34086) on plasma lipids and lipoproteins in C57Bl/6J mice fed western diet ad libitum for 8 weeks. MTP inhibitor solubilzed in DMSO was administered orally for one week (15 mg/kg/day) along with either DMSO (MTPi), lovastatin (50 mg/kg/day), or WY14643 (10 mg/kg/day). Control mice were gavaged with DMSO only.
FIGS. 5a and 5b. Liver samples from FIG. 4 were used to measure MTP activity (A) and hepatic lipids (B-E). Stars on MPTi group represent comparison between Control and MTPi groups.
Control group (n=4) received daily oral gavage of DMSO alone. MTPi group received 15 mg/kg/day MTP inhibitor CP-346086 (MTPi) once daily. […] Plasma total and HDL cholesterol were unaffected by MTPi. Combined treatment of MTPi and lovastatin decreased plasma LDL cholesterol. […] Next, we measured changes in plasma hepatic enzymes (FIGS. 4G-H). […] These studies indicate that apart from lowering plasma triglyceride, MTPi enhances plasma AST/ALT and these increases can be avoided by the co-administration of lovastatin.

[2] = tested on: Reversa mice; settings: for plasma cholesterol / plasma triglycerides: MTP deficient (plpC) Reversa mice, oral 30 days
Protocol: FIG. 11. Reversa animals were injected with plpC every other day for one week. Lovastatin, T-090317 and WY14643 were administered by oral gavage everyday for 30 days after the first injection. Animals were sacrificed on day 30 and plasma and livers were harvested and analyzed. * represent comparison to PBS injected animals and # represent comparisons to plpC control.
Animals: Mttp^tm2Sgy LdIr^tm1Her Apob^tm2Sgy Tg(Mx1-cre)1Cgn/J mice (Reversa) (stock number 004192) were obtained from Jackson Laboratories. Male reversa mice were used to study the effect of mttp gene deletion on plasma and tissue lipids. These animals are transgenic for apolipoprotein B, LDLR^−/− and floxed at exon 1 of the mttp locus. In addition, these mice express cre recombinase under the control of the Mx1 promoter, which is induced after intraperitoneal injection of polyinosinic polycytidylic ribonucleic acid (plpC—Sigma) in the liver, spleen and intestine. Injection of plpC activates the cre recombinase and deletes the mttp gene in the liver and intestines. Reversa mice were injected with either PBS or plpC. Mice injected with plpC were orally gavaged with DMSO (Sigma-Aldrich D8418), DMSO+Lovastatin (50 mg/kg/day) (Calbiochem 438186), DMSO+T0901317 (50 mg/kg/day) (Calbiochem 575310), or DMSO+WY14643 (10 mg/kg/day) (Calbiochem 681725). Mice injected with plpC were also injected with either PBS or Ω-3 fatty acids (SUNY Downstate Medical Center). All animals were given supplemental treatments for 30 days.
All animals were kept in 07:00-19:00 h lighting schedule. […] Food was withdrawn 16 h before the sacrifice of the mice. On the day of the experiment, mice were anesthetized and blood was collected from the heart. Liver was collected, washed in ice-cold PBS, cut into small pieces and used for lipid extraction, histological staining, to measure different protein activities/quantities and for mRNA analysis. Lipids were extracted from the tissue homogenates following the Bligh and Dyer method. Triglyceride (Infinity TM Triglyceride, TR22421) and total cholesterol (Infinity TM Cholesterol, TR13421) levels in the tissues were determined using commercial kits (Thermo Scientific). Free cholesterol and free fatty acid levels were measured using kits from Wako Chemicals (Germany). Esterified cholesterol was calculated by subtracting the free cholesterol from the total cholesterol.
To determine whether accumulation of hepatic triglyceride and free cholesterol is related to increases in plasma AST/ALT, we sought to reduce these lipids using different chemical compounds of known physiologic effects. Mice injected with plpC were orally gavaged with DMSO, DMSO+Lovastatin (50 mg/kg/day), DMSO+T0901317 (50 mg/kg/day), or DMSO+WY14643 (10 mg/kg/day). Lovastatin (Lova), an HMG-CoA reductase (HMGR) inhibitor, and T0901317 (T0), an LXR agonist, are expected to decrease hepatic free cholesterol by inhibiting endogenous cholesterol synthesis and increasing cholesterol efflux, respectively. WY14643 (WY), a PPARα agonist, increases β-oxidation of fatty acids and lowers hepatic triglycerides.
To evaluate the efficacy of Ω-3 FA in reducing hepatic triglyceride, plpC injected mice were treated with intraperitoneal injection of Ω-3 FA (3 mg/kg/2 day) or Ω-3 FA and Lova.

[3] = tested on: mice fed western diet; assay: MTPi with or without pioglitazone or lovastatin in mice fed western diet for five weeks (Example III); settings: for cellular cholesteryl esters (liver) / hepatic free cholesterol / hepatic triglycerides: MTPi vs control
Protocol: FIGS. 7a and 7b. Mice were fed western diet for five weeks. […] Livers were collected and used to measure MTP activity (A), triglyceride (B), total cholesterol (C), free cholesterol (D), esterified cholesterol (E) and free fatty acids (F).
FIGS. 8a and 8b. Plasma was obtained from animals described in FIG. 7 and used to measure triglyceride (A) and cholesterol (B) in apoB-lipoproteins. In addition, HDL cholesterol (C), plasma free fatty acids (D), ALT (E), and AST (F) levels were measured.

[4] = plpC-injected Reversa mice, Lova 50, T0 50, WY 10 mg/kg/day oral or Ω-3 FA 3 mg/kg/2 day ip, vs plpC control
[5] = WD five weeks, treatment in last week, co-drugs with MTPi

SMILES | plasma AST/ALT ([1]; WD 8 weeks, CP-346086 15 mg/kg/day 1 week ± lovastatin 50 or WY14643 10 mg/kg/day, MTPi vs control, co-drugs vs MTPi) | plasma lipids ([1]; WD 8 weeks, WY14643 10 mg/kg/day given along with MTPi, 1 week) | hepatic cholesterol (total, free and esterified) [1] | plasma cholesterol [2] | plasma triglycerides [2] | hepatic free and total cholesterol [2, 4] | cellular cholesteryl esters (liver) [3, 5] | hepatic free cholesterol [3, 5] | hepatic triglycerides [3, 5] | AST/ALT levels (plasma) [3, 5] | plasma HDL cholesterol [3, 5] | plasma free fatty acids [3, 5] | hepatic triglyceride [2, 4] | AST/ALT levels (plasma) ([3]; mouse, in vivo)
Cc1cccc(Nc2cc(Cl)nc(SCC(=O)O)n2)c1C [WY14643] | no significant effect | did not affect | no significant effect | no effect | no effect | no effect | – | – | – | – | – | – | – | –
CC[C@H](C)C(=O)O[C@H]1C[C@@H](C)C=C2C=C[C@H](C)[C@H](CC[C@@H]3C[C@@H](O)CC(=O)O3)[C@H]21 [lovastatin] | – | – | significantly lower | significantly reduced | no effect | significantly reduced | increased | not seen | not affected | significantly lower | slightly increased | not affected | no effect | –
CCc1ccc(CCOc2ccc(CC3SC(=O)NC3=O)cc2)nc1 (racemic) [pioglitazone, (RS)-5-(4-[2-(5-ethylpyridin-2-yl)ethoxy]benzyl)thiazolidine-2,4-dione] | – | – | – | – | – | – | increased | not seen | avoided increases | – | slightly increased | – | – | significantly lower
